According to US8133906B2, “Method of treating amblyopia” (Hermo Pharma Oy, priority 2007, dated 2012):
“Also recorded” adds a separate entry of the source.

Columns and labels:
[1] = system: adult rats, visual cortex contralateral to the deprived eye; experiment: Intracortical infusion of diazepam or vehicle during MD in fluoxetine treated rats, C/I VEP ratio; assay type: in vivo, rat; conditions: cortical diazepam 2 mg/ml during last week of chronic fluoxetine
Description: Additional doses of urethane were used to keep the anesthesia level stable throughout the experiment. Body temperature was continuously monitored and maintained at ˜37° C. by a thermostated electric blanket during the experiment. An ECG was continuously monitored. A hole was drilled in the skull, corresponding to the binocular portion of the primary visual cortex (binocular area OclB) contralateral to the deprived eye. After exposure of the brain surface, the dura was removed, and a micropipette (2 MΩ) filled with NaCl (3 M) was inserted into the cortex 5 mm from λ (intersection between sagittal- and lambdoid-sutures). Both eyes were fixed and kept open by means of adjustable metal rings surrounding the external portion of the eye bulb. We measured visual acuity through both eyes using visual evoked potentials (VEPs). During recording through one eye, the other was covered by a black adhesive tape. […] Transient VEPs in response to abrupt contrast reversal (0.5 Hz) were evaluated in the time domain by measuring the peak-to-baseline amplitude and peak latency of the major negative component. Visual stimuli were horizontal sinusoidal gratings of different spatial frequencies and contrast, generated by a VSG2/2 card running custom software and presented on a monitor (20×22 cm; luminance 15 cd m^−2) positioned 20 cm from the rat's eyes and centred on the previously determined receptive fields. […]

[2] = system: adult Long-Evans hooded rats, binocular visual cortex contralateral to the deprived eye; experiment: Ocular dominance plasticity after one week of monocular deprivation (MD) in adult rats, C/I VEP ratio; assay type: in vivo, rat; conditions: fluoxetine alone, without deprivation of one eye
Description: Adult Long-Evans hooded rats were used in this study. Animals were group-housed under standard conditions with food and water ad libitum in plexiglass cages (40×30×20 cm) and kept in a 12:12 light/dark cycle.
Adult animals, under treatment, were anesthetized with avertin (1 ml kg^−1) and mounted on a stereotaxic apparatus to be monocularly deprived. Eyelid closure was inspected daily until complete cicatrization; subjects with even minimal spontaneous re-opening were excluded. Great care was taken during the first days after MD to prevent inflammation or infection of the deprived eye through topical application of antibiotic and cortisone.
Additional doses of urethane were used to keep the anesthesia level stable throughout the experiment. Body temperature was continuously monitored and maintained at ˜37° C. by a thermostated electric blanket during the experiment. An ECG was continuously monitored. A hole was drilled in the skull, corresponding to the binocular portion of the primary visual cortex (binocular area OclB) contralateral to the deprived eye. […] We measured visual acuity through both eyes using visual evoked potentials (VEPs). […] Transient VEPs in response to abrupt contrast reversal (0.5 Hz) were evaluated in the time domain by measuring the peak-to-baseline amplitude and peak latency of the major negative component. […]

[3] = system: adult amblyopic rats, visual cortex contralateral to the long-term deprived eye; experiment: VEP recording of visual acuity and binocularity in adult amblyopic rats (long-term MD from P21, reverse suture); assay type: in vivo, rat; conditions: long-term MD from P21, reverse suture last two weeks of 4-week fluoxetine, n=5, control 0.62±0.06, fellow eye 1.06±0.01
Description: (§1) This method of administration yields steady-state plasma concentrations of 356±99 ng/ml in rats, which is within the recommended plasma concentration for the treatment of depression in humans (50-450 ng/ml).
To perform analysis of long-term MD, rats were anesthetized with avertin (1 ml kg^−1) and monocularly deprived through eyelid suturing at P21. Eyelid closure was inspected daily until complete cicatrization; subjects with even minimal spontaneous re-opening were excluded. […] The long-term deprived eye was re-opened using thin scissors, while the other eye was sutured shut. […]
Additional doses of urethane were used to keep the anesthesia level stable throughout the experiment. Body temperature was continuously monitored and maintained at ˜37° C. by a thermostated electric blanket during the experiment. An ECG was continuously monitored. […] We measured visual acuity through both eyes using visual evoked potentials (VEPs). […] Transient VEPs in response to abrupt contrast reversal (0.5 Hz) were evaluated in the time domain by measuring the peak-to-baseline amplitude and peak latency of the major negative component. […] Binocularity (ocular dominance) was assessed calculating the contralateral to ipsilateral (C/I) VEP ratio, i.e. the ratio of VEP amplitudes recorded by stimulating the eye respectively contralateral and ipsilateral to the visual cortex where recording is performed.

adult amblyopic rats = experiment: Behavioral assessment of visual acuity (visual water task) in adult amblyopic rats; assay type: in vivo, rat; conditions: reverse suture, 4-week fluoxetine, n=5
Description: as §1
To perform analysis of long-term MD, rats were anesthetized with avertin (1 ml kg^−1) and monocularly deprived through eyelid suturing at P21. Eyelid closure was inspected daily until complete cicatrization; subjects with even minimal spontaneous re-opening were excluded. […] The long-term deprived eye was re-opened using thin scissors, while the other eye was sutured shut. Great care was taken during the first days after RS to prevent inflammation or infection in the previously deprived eye through topical application of antibiotic and cortisone.
Then, after RS, during the third week of treatment (P90), we started measuring visual acuity of the long term deprived eye. […] To measure visual acuity, we used the visual water task (Prusky et al., 2000) which trains animals to first distinguish a low (0.1 cycles per degree (c deg^−1)) spatial frequency vertical grating from grey, and then tests the limit of this ability at higher spatial frequencies. The apparatus consists of a trapezoidal-shaped pool with two panels placed side by side at one end. […] A trial is recorded as incorrect if an animal enters the arm without the platform. […]

BDNF = BDNF protein expression by ELISA after repeated fluoxetine administration; assay type: in vivo, rat; conditions: adult rats
Description: as §1
Proteins from fresh visual cortex and hippocampus were initially extracted, respectively, using lysis buffer (1% Triton X-100, 10% Glycerol, 20 mM TrisHCl pH 7.5, 150 mM NaCl, 10 mM EDTA, 0.1 mM Na3VO4, 1¼ g/ml Leupeptin, 1¼ g/ml Aprotinin, 1 mM PMSF). The total concentration of samples was quantified with the protein assay kit (Bio-Rad, Hercules, Calif.) using a BSA based standard curve. Afterwards, BDNF expression was assessed loading 100 μg of total proteins in triplicate in a standard ELISA plate together with a standard curve and processed as indicated in the manufacturer protocol (BDNF, Promega).

[4] = system: extracellular GABA and glutamate in visual cortex; experiment: In vivo brain microdialysis in the visual cortex with HPLC of GABA and glutamate; design: species or system rat; conditions: adult rats, repeated fluoxetine
Description: After the end of repeated treatment with fluoxetine, the in vivo sampling of dialysates was performed inserting a microdialysis probe into the guide shaft previously implanted. A detailed description of the procedure followed is reported in (Hernandez et al., 1986). Briefly, the probe was made of concentric fused-silica polyimide covered capillary tube into a 26 gauge stainless steel tube with a 1 mm long tip of exposed cellulose membrane (6000 MW cut-off). It was connected to a dialysis system pumping an artificial CSF (142 mM NaCl, 3.9 mM KCl, 1.2 mM CaCl2, 1 mM MgCl2, 1.35 mM Na2HPO4, pH 7.4) at a flow rate of 1 μl min^−1. The probe protruded 1 mm from the tip of the guide shaft. Six hours after insertion of the probe (stabilization period), sampling was carried out.
After brain microdialysis, rats were sacrificed with an overdose of chloral hydrate and perfused intracardially as described above. Brains were post-fixed for two hours before being immersed in 30% sucrose in PBS. […]
Analysis of γ-aminobutyric acid (GABA) and glutamate (GLU) basal levels from microdialysates was performed using High Performance Liquid Chromatography (HPLC) coupled to a fluorimetric detection system. […] Homoserine was used as internal standard and amino-acid concentrations were calculated from a linear standard curve built upon known concentrations of injected amino acids. […]

[5] = system: adult rat visual cortex slices; experiment: LTP recordings in visual cortex slices after theta-burst stimulation from the white matter (WM-LTP); conditions: slices from fluoxetine treated adult rats (P100), measured 20-30 min following TBS
Description: Slices (0.35 mm thick) of visual cortex were obtained using a Leica (Nussloch, Germany) vibratome. […] The recording solution was composed as the cutting solution with the following differences (in mM): 130 NaCl, 5.0 dextrose, 1.0 MgCl2, 2.0 CaCl2, 0.01 glycine, no kynurenate, no sucrose. Electrical stimulation (100 μsec duration) was delivered with a bipolar concentric stimulating electrode (FHC, St. Bowdoinham, Me.) placed at the border of the white matter and layer VI. Field potentials in layers II-III were recorded by a micropipette (1-3MΩ) filled with NaCl (3 M). Baseline responses were obtained every 30 sec with a stimulation intensity that yielded a half-maximal response. After achievement of a 15 min stable baseline (field potential amplitude within 15% of change and with no evident increasing or decreasing trends), θ burst stimulation (TBS) was delivered. Postsynaptic field potentials after TBS were recorded every 30 sec during 30 min.

[6] = humans; cited from earlier work

SMILES	Effect on OD shift induced by MD in fluoxetine treated rats [1]	Responsiveness of either eye to visual stimulation [2]	Visual acuity of the formerly deprived eye (VEP) [3]	Visual acuity of the formerly deprived eye (behavioral, visual water box task) (adult amblyopic rats)	BDNF protein expression in hippocampus vs controls (BDNF; t-test p<0.01 n=6)	BDNF protein expression in visual cortex vs controls (BDNF; t-test p<0.04 n=6)	Extracellular glutamate (GLU) levels vs controls ([4]; data not shown)	Basal extracellular levels of GABA in visual cortex vs controls ([4]; n=5, p<0.02)	WM-LTP of layer II-III field potentials after theta-burst stimulation vs controls [5]	Recommended (therapeutic) plasma concentration for the treatment of depression [6]
CN1C(=O)CN=C(c2ccccc2)c2cc(Cl)ccc21 [diazepam]	prevented the restoration of OD plasticity; also recorded: totally prevented	–	–	–	–	–	–	–	–	–
CNCCC(Oc1ccc(C(F)(F)F)cc1)c1ccccc1 (stereo not shown) [fluoxetine]	–	did not produce any changes	0.97±0.04 c deg^−1	0.88±0.02 c deg^−1	significantly higher; also recorded: similarly enhanced	significantly higher	No difference	significantly lower; also recorded: significant reduction	significantly enhanced; also recorded: fully restored	50 to 450 ng/mL
